Values belong to the compound of their own block, whether it stands above or below them.
Molecular target: PIK3CA (UniProt P42336)
Assay: In Vitro Inhibition of PIK3CA Kinase Activity

PIK3CA, sequence (P42336 whole entry, looked up): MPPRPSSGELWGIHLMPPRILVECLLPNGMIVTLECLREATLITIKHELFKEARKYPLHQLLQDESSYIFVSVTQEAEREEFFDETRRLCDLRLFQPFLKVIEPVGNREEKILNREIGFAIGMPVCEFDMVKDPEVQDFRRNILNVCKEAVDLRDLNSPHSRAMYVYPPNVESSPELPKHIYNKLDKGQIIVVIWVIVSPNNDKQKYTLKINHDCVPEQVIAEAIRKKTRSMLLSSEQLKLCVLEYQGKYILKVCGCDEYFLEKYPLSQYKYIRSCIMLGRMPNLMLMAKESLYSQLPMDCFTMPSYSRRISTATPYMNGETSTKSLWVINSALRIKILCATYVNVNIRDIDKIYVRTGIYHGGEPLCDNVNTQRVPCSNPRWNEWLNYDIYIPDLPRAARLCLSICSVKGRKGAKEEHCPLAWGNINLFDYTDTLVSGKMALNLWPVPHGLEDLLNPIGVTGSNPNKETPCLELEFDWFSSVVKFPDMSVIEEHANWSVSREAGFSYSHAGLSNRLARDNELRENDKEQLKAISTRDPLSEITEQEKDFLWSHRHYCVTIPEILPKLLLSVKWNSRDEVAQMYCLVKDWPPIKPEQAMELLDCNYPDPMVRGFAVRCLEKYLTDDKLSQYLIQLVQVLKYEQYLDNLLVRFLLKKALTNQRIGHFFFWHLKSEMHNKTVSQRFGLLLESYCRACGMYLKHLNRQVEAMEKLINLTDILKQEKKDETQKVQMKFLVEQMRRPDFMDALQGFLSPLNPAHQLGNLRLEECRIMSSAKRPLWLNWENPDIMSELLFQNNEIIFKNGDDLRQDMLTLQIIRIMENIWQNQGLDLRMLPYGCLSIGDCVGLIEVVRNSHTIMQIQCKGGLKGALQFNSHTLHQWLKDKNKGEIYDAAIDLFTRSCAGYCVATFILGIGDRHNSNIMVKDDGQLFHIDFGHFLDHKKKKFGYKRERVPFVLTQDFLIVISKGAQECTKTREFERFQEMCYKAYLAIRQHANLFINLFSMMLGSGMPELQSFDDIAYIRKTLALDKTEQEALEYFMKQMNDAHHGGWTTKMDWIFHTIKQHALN

Structure (SMILES): O=c1cc(N2CCOCC2)oc2c1ccc1ccccc12
IC50: 20 µM

Structure (SMILES): O=c1cc(N2CCOCC2)oc2cc(OCc3ccc(F)cc3)ccc12
IC50: 95 µM

Structure (SMILES): CC(C)(C)c1ccc(-c2cc(=O)cc(N3CCOCC3)o2)cc1
IC50: 37 µM

Structure (SMILES): CC1CN(c2cc(=O)c3ccc4ccccc4c3o2)CCO1 (stereo not given)
IC50: 2.5 µM

Structure (SMILES): O=c1cc(N2CCOCC2)nc2c3ccccc3ccn12
IC50: 750 µM

Structure (SMILES): O=c1cc(N2CCOCC2)oc2cc(OCc3ccc(Cl)cc3)ccc12
IC50: > 100 µM

Structure (SMILES): COc1ccc(-c2cc(=O)cc(N3CCOCC3)o2)cc1
IC50: 15 µM

The next lines start with the values.

IC50: 6 µM
Structure (SMILES): O=C1c2ccccc2C(=O)N1CCCOc1ccc2c(=O)cc(N3CCOCC3)oc2c1

IC50: 30 µM
Structure (SMILES): O=c1cc(-c2ccccc2)oc(N2CCOCC2)c1

IC50: 11 µM
Structure (SMILES): O=c1cc(N2CCOCC2)oc2ccc3ccccc3c12

IC50: 10 µM
Structure (SMILES): O=c1cc(-c2ccc(Cl)cc2)oc(N2CCOCC2)c1

IC50: 13 µM
Structure (SMILES): O=c1cc(-c2ccc(F)cc2)oc(N2CCOCC2)c1

IC50: 18 µM
Structure (SMILES): O=c1cc(N2CCOCC2)oc2c3c(ccc12)CCCC3

IC50: 16 µM
Structure (SMILES): O=c1cc(N2CCOCC2)oc2cc3ccccc3cc12

IC50: 6 µM
Structure (SMILES): O=c1cc(N2CCSCC2)oc2c1ccc1ccccc12

— the Kinase Knowledgebase extract (Sharma et al. 2016)
